Values joined by “and” are separate entries in the source; they are usually repeats but may differ in a detail not shown here. Equal values may be shown once.
Test system: lipid droplet (LD) proteins from mouse white adipose tissue (WAT)
Assay: Stoichiometry of LD protein phosphorylation by isotope tagging and enzymatic (BIAP) dephosphorylation after CL316,243 injection
Assay type: in vivo
Experimental: Purification of lipid droplets (LD) from mouse white adipose tissue (WAT). All animals were maintained in the Canadian Council on Animal Care (CCAC)-accredited animal facilities of the CHU Ste-Justine Research Center. Two month-old (˜25-29 g BW) male C57BU6J mice, were purchased from Charles River Canada (St. Constant, PQ, Canada), and housed for an additional month at 25° C. in an animal facility with 12:12 h light-dark cycles. During this time, animals were fed ad libitum with 5K chow (˜18% protein, ˜6% fat, ˜5% fiber). […] The homogenate was filtered through a nylon mesh and centrifuged at 17 g for 2 min. Pellet and infranatant were removed and the floating lipid droplets resuspended in 2 ml of the homogenization buffer and centrifuged as above. After the second wash with 50 mM TRIS, pH 7.4, containing 1 M NaCl (Fisher), the LD were snap-frozen and kept at −80° C. until further use.
Extraction of LD proteins and preparation of peptide digests. Purified LD preparations (average wet weight 250 mg) were resuspended in 1 ml of ice-cold acetone, sonicated for 25 sec at 80 W, incubated for 16 h at −20° C. and centrifuged for 10 min at 13,000 g. The supernatants were discharged and pellets were re-extracted twice with ice-cold acetone (1 h each time). After removal of residual acetone under a stream of nitrogen, the protein pellets were re-suspended in 300 μl of a 0.1% sodium 3-[(2-methyl-2-undecyl-1,3-dioxolan-4-yl)methoxyl]-1-propanesulfonate (RapiGest™ SF) in 50 mM NH4HCO3, pH 7.8, containing 5 mM DTT, then sonicated for 10-25 sec and incubated in a boiling bath for 5 min. After 5-min centrifugation at 13,000 g, supernatants were treated for 30 min with IAA in the dark (final concentration 15 mM), and digested overnight with trypsin (Promega, sequencing grade; trypsin to protein ratio 1:50). After digestion, samples were supplemented with TFA (final concentration 0.5%), incubated at 37° C. for 1 h and centrifuged at 13,000 g for 10-min to remove RapiGest™ SF.
Labeling and dephosphorylation of LD peptides. Peptide digests (˜200 μg of protein) were de-salted by the reverse phase chromatography on macro-C18 spin columns (Harvard apparatus) eluted with 70% acetonitrile in water, dried in a SpeedVac™ Concentrator (Savant) and labeled with heavy or light SIMPL (Stable Isotope-containing Multiplex Peptide Labels) isotope tags as described (Fedjaev et al., 2007, supra). After adjusting pH to 8.0 with 500 mM NH4HCO3, samples were supplemented with 3 units of bovine intestinal alkaline phosphatase (BIAP, Sigma, P-5521) and incubated for 3 h at 37° C. BIAP reaction was terminated by addition of concentrated TCA (Sigma) to a final concentration 10%, followed by 1 h incubation on ice and 30-min centrifugation at 13,000 g. Samples containing dephosphorylated peptides were then mixed 1:1 with untreated samples, extracted twice with ethylacetate (Sigma) to remove the excess of unreacted SIMPL labels and analyzed by 2D-LC-MS/MS as described below.
HPLC of peptides on weak anion exchange (WAX) column. Offline WAX HPLC was performed on an Agilent™ 1100 Series liquid chromatography system. Peptides were loaded on C18 (Jupiter™ 4 μm Proteo 90 Å 50×1 mm, Phenomenex) column in 10 mM ammonium acetate containing 10% ACN, and eluted with step gradient of 70% of ACN directly on the WAX (PolySulfoethyl A […] 5 μm 300 Å) column. The column was washed with 10 mM ammonium acetate buffer containing 10% ACN for 10 min and peptides were eluted with 0-100% gradient of 2 M ammonium formate, 10% ACN. […] fractions of 50 μl were collected. Collected fractions were immediately acidified with FA (final concentration 0.2%) and analyzed by LC-MS/MS.
μLC-MS/MS analysis of LD peptides. Peptides were analyzed using a LC-MS/MS instrument consisting of an Agilent™ 1100 Series nanoflow liquid chromatography system and LC/MSD-Trap-SL™ ion trap mass spectrometer (Agilent Technologies, Santa Clara, Calif., USA). […]

C[C@H](Cc1ccc2c(c1)OC(C(=O)[O-])(C(=O)[O-])O2)NC[C@H](O)c1cccc(Cl)c1.[Na+].[Na+] [CL316,243, disodium 5-[(2R)-2-[[(2R)-2-(3-Chlorophenyl)-2-hydroxyethyl]amino]propyl]-1,3-benzodioxole-2,2-dicarboxylate]
Mean isotope ratio Treated, peptide KLLVSSEDYGR (Alpha II spectrin, LD from WAT, 1 mg/kg i.p., 15 min): 3.47 | Ratio Treated, peptide SSEEIESAFR (Alpha-II spectrin, z 2, m/z 668.3, LD from WAT of treated mice): 0.64(2) | Ratio Treated, peptide DLTNVQNLQK (Alpha-II spectrin, z 2, m/z 674.3, LD from WAT of treated mice): 0.98(1) | Ratio Treated, peptide SQLLGSAHEVQR (Alpha-II spectrin, z 2, m/z 750.4, LD from WAT of treated mice): 1.05(4) | Ratio Treated, peptide DTEQVDNWMSK (Alpha-II spectrin, z 2, m/z 764.7, LD from WAT of treated mice): 1.03(1) | Ratio Treated, peptide TKQDEVNAAWQR (Alpha-II spectrin, z 2, m/z 813.4, LD from WAT of treated mice): 0.84(1) | Ratio Treated, peptide EANELQQWITEK (Alpha-II spectrin, z 2, m/z 832.4, LD from WAT of treated mice): 1.1(3) | Ratio Treated, peptide MQHNLEQQIQAR (Alpha-II spectrin, z 2, m/z 835.9, LD from WAT of treated mice): 0.94(3) | Ratio Treated, peptide HQAFEAELSANQSR (Alpha-II spectrin, z 2, m/z 881.9, LD from WAT of treated mice): 1.24(2) | Ratio Treated, peptide LIQEQHPEEELIK (Alpha-II spectrin, z 2, m/z 891.5, LD from WAT of treated mice): 1.09(4) | Ratio Treated, peptide HQAFEAELHANADR (Alpha-II spectrin, z 2, m/z 892.5, LD from WAT of treated mice): 0.84(3) | Ratio Treated, peptide HQLLEADISAHEDR (Alpha-II spectrin, z 2, m/z 908.1, LD from WAT of treated mice): 1.04(2) | Ratio Treated, peptide GNAMVEEGHFAAEDVK (Alpha-II spectrin, z 2, m/z 940, LD from WAT of treated mice): 1.1(2) | Ratio Treated, peptide AQLADSFHLQQFFR (Alpha-II spectrin, z 2, m/z 945, LD from WAT of treated mice): 1.04(1) | Ratio Treated, peptide LSDDNTIGQEEIQQR (Alpha-II spectrin, z 2, m/z 961.3, LD from WAT of treated mice): 1.25(1) | Ratio Treated, peptide DLAALGDKVNSLGETAQR (Alpha-II spectrin, z 2, m/z 1020, LD from WAT of treated mice): 1.29(1) | Ratio Treated, peptide SSLSSAQADFNQLAELDR (Alpha-II spectrin, z 2, m/z 1064, LD from WAT of treated mice): 0.99(3) | Ratio Treated, peptide SADESGQALLAASHYASDEVR (Alpha-II spectrin, z 2, m/z 1177, LD from WAT of treated mice): 1.14(3) | Ratio Treated, peptide NQALNTDNYGHDLASVQALQR (Alpha-II spectrin, z 2, m/z 1253, LD from WAT of treated mice): 0.91(3) | Ratio Treated, peptide HQAFEAELHANADR (Alpha-II spectrin, z 3, m/z 597.6, LD from WAT of treated mice): 0.81(1) | Ratio Treated, peptide SADESGQALLAASHYASDEVR (Alpha-II spectrin, z 3, m/z 785, LD from WAT of treated mice): 1.1(3) | Mean isotope ratio Treated, peptide THVDSLR (Apolipoprotein A-I, BIAP-treated/untreated, LD from WAT, 1 mg/kg i.p., 15 min): −1.12 | Ratio Treated, peptide (K)VQPYLDEFQK(K) (Apolipoprotein A-I, z 2, m/z 721.2, LD from WAT of treated mice): 0.97(2) | Ratio Treated, peptide (R)TQLAPHSEQMR(E) (Apolipoprotein A-I, z 2, m/z 736.9, LD from WAT of treated mice): 0.99(1) | Ratio Treated, peptide (K)SNPTLNEYHTR(A) (Apolipoprotein A-I, z 2, m/z 753.9, LD from WAT of treated mice): 1(4) | share of HSL peptide SVSEAALAQPEGLLGTDTLKK phosphorylated (LD of stimulated adipocytes): ~80% | Mean isotope ratio Treated, peptide SVSEAALAQPEGLLGTDTLK (Lipase, hormone sensitive, LD from WAT, 1 mg/kg i.p., 15 min): 5.1 | Ratio Treated, peptide (R)LILTPPAAPLN(—) (Lipase, hormone sensitive, z 2, m/z 647.8, LD from WAT of treated mice): 0.78(1) | Ratio Treated, peptide (R)AAFPEGFHPR(R) (Lipase, hormone sensitive, z 2, m/z 652.3, LD from WAT of treated mice): 1.14(2) | Ratio Treated, peptide (R)QATEFCVQR(I) (Lipase, hormone sensitive, z 2, m/z 657.2, LD from WAT of treated mice): 1.01(3) | Ratio Treated, peptide (K)HCDLLGSTGER(I) (Lipase, hormone sensitive, z 2, m/z 710.3, LD from WAT of treated mice): 1(4) | Ratio Treated, peptide (K)CVSAYSGTEAEDHFDSDQK(A) (Lipase, hormone sensitive, z 2, m/z 1164, LD from WAT of treated mice): 1.08(1) | Ratio Treated, peptide (K)CVSAYSGTEAEDHFDSDQK(A) (Lipase, hormone sensitive, z 3, m/z 774.6, LD from WAT of treated mice): 0.92(1) | Mean isotope ratio Treated, peptide FVEGLPINDFSR(E) (Malate dehydrogenase, cytoplasmic, LD from WAT, 1 mg/kg i.p., 15 min): 3.08 | Ratio Treated, peptide (K)GEFITTVQQR(G) (Malate dehydrogenase, cytoplasmic, z 2, m/z 677.3, LD from WAT of treated mice): 1.18(2) | Mean isotope ratio Treated, peptide GLSAPSCPNGLDDK (Perilipin, LD from WAT, 1 mg/kg i.p., 15 min): 1.4 | Mean isotope ratio Treated, peptide LSLMEPESEFRDIDNPSAEAER (Perilipin, LD from WAT, 1 mg/kg i.p., 15 min, 1 mg/kg): 1.6 and 1.63 | Ratio Treated, peptide GLDHLEEK (Perilipin, z 2, m/z 558.3, LD from WAT of treated mice): 1.05(4) | Ratio Treated, peptide EVTALPNPR (Perilipin, z 2, m/z 587.2, LD from WAT of treated mice): 1.1(4) | Ratio Treated, peptide ETAEYAANTR (Perilipin, z 2, m/z 650.7, LD from WAT of treated mice): 0.71(1) | Ratio Treated, peptide IPALQYPPEK (Perilipin, z 2, m/z 665.5, LD from WAT of treated mice): 1.01(4) | Ratio Treated, peptide EAHPLVASVCNAYEK (Perilipin, z 2, m/z 932, LD from WAT of treated mice): 1.06(4) | Ratio Treated, peptide VLQLPWSGTCECFQK (Perilipin, z 2, m/z 1020, LD from WAT of treated mice): 0.98(4) | Ratio Treated, peptide GVQGASNLAAWSMEPVVR (Perilipin, z 2, m/z 1024, LD from WAT of treated mice): 1(2) | Ratio Treated, peptide GVTDNVVDTVVHYVPLPR (Perilipin, z 2, m/z 1078, LD from WAT of treated mice): 0.93(3) | Ratio Treated, peptide GPTLLDGDLPEQENVLQR (Perilipin, z 2, m/z 1085, LD from WAT of treated mice): 1.05(4) | Ratio Treated, peptide VLQLPWSGTCECFQK (Perilipin, z 3, m/z 680.8, LD from WAT of treated mice): 1.17(2) | Ratio Treated, peptide GVQGASNLAAWSMEPVVR (Perilipin, z 3, m/z 683, LD from WAT of treated mice): 1(2) | Ratio Treated, peptide VVEFLLPPDKESAPSSGR (Perilipin, z 3, m/z 701.8, LD from WAT of treated mice): 1.11(4) | Ratio Treated, peptide GVTDNVVDTVVHYVPLPR (Perilipin, z 3, m/z 719.3, LD from WAT of treated mice): 1(3) | Ratio Treated, peptide GPTLLDGDLPEQENVLQR (Perilipin, z 3, m/z 723.9, LD from WAT of treated mice): 1.01(4) | Mean isotope ratio Treated, peptide SHDTTSNTLTQLLAK (Protein kinase C delta binding protein, LD from WAT, 1 mg/kg i.p., 15 min): 1.11 | Ratio Treated, peptide (R)LEANHGLLVAR(G) (Protein kinase C delta binding protein, z 2, m/z 684.4, LD from WAT of treated mice): 0.94(2) | Ratio Treated, peptide (K)EDPEKPVLQIESAA(—) (Protein kinase C delta binding protein, z 2, m/z 854.9, LD from WAT of treated mice): 0.74(1)

From patent US20110223633A1, “METHODS AND REAGENTS FOR ENRICHMENT AND CHARACTERIZATION OF PHOSPHORYLATED BIOMOLECULES” (priority 2008, published 2011)
